Experiment [1] concerns cynomolgus monkey PBMCs. In words: Cytokine response by primary cynomolgus monkey PBMCs stimulated with LPS. The class given is cell-based, cynomolgus monkey (M. fascicularis). To be noted: Macaca fascicularis, PBMC, 100 ng/ml LPS 20 h. How it is done:
Freshly isolated cynomolgus monkey (M. fascicularis) peripheral blood mononuclear cells (PBMCs) were purchased from SNBL (Everett, Wash.). Cells were seeded at 1.8e6 cells/ml in RPMI 1640 (Life Technologies, Grand Island, N.Y.) containing 10% (v/v) charcoal-dextran treated, heat inactivated FBS (Omega Scientific, Tarzana, Calif.), 0.05 mM 2-Mercaptoethanol (Sigma-Aldrich, St. Louis, Mo.), and 1×Pen/Strep Amphotericin B (Lonza, Allendale, N.J.). Cells were pre-treated with 0.1% DMSO or with a test compound for 1 h at 37° C. in a humidified atmosphere at 5% CO2. Compounds were tested at 10 μM down by ⅕ in a 4-point serial dilution series. Cells were then stimulated with 100 ng/ml LPS from E. coli 0111:B4 (EMD Millipore, Billerica, Mass.) for 20 h at 37° C. in a humidified atmosphere at 5% CO2. Supernatant was collected and analyzed using the Milliplex Map Non-human Primate Cytokine Magnetic Bead Panel Kit (EMD Millipore) as per manufacturer's protocols. Magnetic beads were read on the Bio-Plex MAGPIX multiplex reader instrument using the accompanying xPONENT 4.2 acquisition software (Bio-Rad Laboratories, Hercules, Calif.). Data were analyzed via the Bio-Plex Manager software v6.1 (Bio-Rad Laboratories).

Experiment [2] has as its target T1, BRD2 (Homo sapiens, UniProt P25440).
T1 construct: read out by qPCR of the phage DNA
Description: Bromodomain binding assay: BRD2. How it is done: (§1) T7 phage strains displaying bromodomains were grown in parallel in 24-well blocks in an E. coli host derived from the BL21 strain. E. coli were grown to log-phase and infected with T7 phage from a frozen stock (multiplicity of infection=0.4) and incubated with shaking at 32° C. until lysis (90-150 minutes). The lysates were centrifuged (5,000×g) and filtered (0.2 μm) to remove cell debris. […] The liganded beads were blocked with excess biotin and washed with blocking buffer (SeaBlock (Pierce), 1% BSA, 0.05 Tween 20, 1 mM DTT) to remove unbound ligand and to reduce non-specific phage binding. […] Test compounds (T62 and 46) were prepared as 1000× stocks in 100% DMSO and subsequently diluted 1:10 in monoethylene glycol (MEG) to create stocks at 100× the screening concentration (resulting stock solution is 10% DMSO/90% MEG). The compounds were then diluted directly into the assays such that the final concentration of DMSO and MEG were 0.1% and 0.9%, respectively. All reactions were performed in polystyrene 96-well plates in a final volume of 0.135 ml. […] The bromodomain concentration in the eluates was measured by qPCR. Compounds were assayed for binding activity against a panel of 40 bromodomain-containing proteins.

In experiment [3] the target is T2, BRD3 (Homo sapiens, UniProt Q15059).
T2 construct: read out by qPCR of the phage DNA
In words: Bromodomain binding assay: BRD3. The protocol: as §1

The target of experiment [4] is T3, BRD4 (Homo sapiens, UniProt O60885).
T3 construct: read out by qPCR of the phage DNA
In words: Bromodomain binding assay: BRD4. How it is done: as §1

For experiment [5], the target named is T4, ATAD2A (Homo sapiens, UniProt Q6PL18).
T4 construct: T7 phage strains displaying bromodomains were grown in parallel; made in house; host or cells: E. coli host derived from BL21, infected with T7 phage
Description: Bromodomain binding assay: ATAD2A. How it is done:
as §1

Experiment [6] has as its target T5, BRD8 (Homo sapiens, UniProt Q9H0E9).
T5 construct: read out by qPCR of the phage DNA
Description: Bromodomain binding assay: BRD8. How it is done:
as §1

For experiment [7], the target named is T6, BRPF1 (Homo sapiens, UniProt P55201).
T6 construct: T7 phage strains displaying bromodomains were grown in parallel; made in house; host or cells: E. coli host derived from BL21, infected with T7 phage
In words: Bromodomain binding assay: BRPF1. How it is done: as §1

Experiment [8] addresses T7, GCN5L2 (Homo sapiens, UniProt Q92830).
T7 construct: made in house; host or cells: E. coli host derived from the BL21 strain (T7 phage lysate)
Description: Bromodomain binding assay: GCN5L2. The protocol: as §1

In experiment [9] the target is T8, SMARCA2 (Homo sapiens, UniProt P51531).
T8 construct: made in house; host or cells: E. coli host derived from the BL21 strain (T7 phage lysate)
Description: Bromodomain binding assay: SMARCA2. The protocol:
as §1

The mark [10] stands for this setting: read-out: EC50 (μM) under LPS stimulation, G-CSF.
Where [11] appears, read: read-out: EC50 (μM) under LPS stimulation, GM-CSF.
[12] abbreviates: read-out: EC50 (μM) under LPS stimulation, IFN-γ.
[13] abbreviates: read-out: EC50 (μM) under LPS stimulation, IL-1ra.
Where [14] appears, read: read-out: EC50 (μM) under LPS stimulation, IL-1β.
The mark [15] stands for this setting: read-out: EC50 (μM) under LPS stimulation, IL-4.
The mark [16] stands for this setting: read-out: EC50 (μM) under LPS stimulation, IL-6.
[17] abbreviates: read-out: EC50 (μM) under LPS stimulation, IL-8.
Where [18] appears, read: read-out: EC50 (μM) under LPS stimulation, IL-10.
[19] abbreviates: read-out: EC50 (μM) under LPS stimulation, IL-12/IL-23 (p40).
[20] abbreviates: read-out: EC50 (μM) under LPS stimulation, MCP-1.
Setting [21] is: read-out: EC50 (μM) under LPS stimulation, MIP-1α.
[22] abbreviates: read-out: EC50 (μM) under LPS stimulation, MIP-1β.
Setting [23] is: read-out: EC50 (μM) under LPS stimulation, TNF-α.
[24] abbreviates: read-out: EC50 (μM) under LPS stimulation, VEGF.
Setting [25] is: read-out: EC50 (μM) under LPS stimulation, sCD40L.

We go through 3 molecules from patent US20170008888A1 (KYORIN PHARMACEUTICAL CO., LTD., priority 2014, published 2017).

For orientation: Kd means a measure of binding affinity in units of concentration.

Like-named read-outs stand apart in the source and are kept apart here.

T6 sequence (P55201 628-732 limits assumed, species assumed): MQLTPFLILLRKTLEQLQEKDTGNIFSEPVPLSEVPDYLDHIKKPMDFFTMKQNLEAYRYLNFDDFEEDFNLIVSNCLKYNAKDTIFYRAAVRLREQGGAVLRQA
T5 sequence (Q9H0E9 whole entry): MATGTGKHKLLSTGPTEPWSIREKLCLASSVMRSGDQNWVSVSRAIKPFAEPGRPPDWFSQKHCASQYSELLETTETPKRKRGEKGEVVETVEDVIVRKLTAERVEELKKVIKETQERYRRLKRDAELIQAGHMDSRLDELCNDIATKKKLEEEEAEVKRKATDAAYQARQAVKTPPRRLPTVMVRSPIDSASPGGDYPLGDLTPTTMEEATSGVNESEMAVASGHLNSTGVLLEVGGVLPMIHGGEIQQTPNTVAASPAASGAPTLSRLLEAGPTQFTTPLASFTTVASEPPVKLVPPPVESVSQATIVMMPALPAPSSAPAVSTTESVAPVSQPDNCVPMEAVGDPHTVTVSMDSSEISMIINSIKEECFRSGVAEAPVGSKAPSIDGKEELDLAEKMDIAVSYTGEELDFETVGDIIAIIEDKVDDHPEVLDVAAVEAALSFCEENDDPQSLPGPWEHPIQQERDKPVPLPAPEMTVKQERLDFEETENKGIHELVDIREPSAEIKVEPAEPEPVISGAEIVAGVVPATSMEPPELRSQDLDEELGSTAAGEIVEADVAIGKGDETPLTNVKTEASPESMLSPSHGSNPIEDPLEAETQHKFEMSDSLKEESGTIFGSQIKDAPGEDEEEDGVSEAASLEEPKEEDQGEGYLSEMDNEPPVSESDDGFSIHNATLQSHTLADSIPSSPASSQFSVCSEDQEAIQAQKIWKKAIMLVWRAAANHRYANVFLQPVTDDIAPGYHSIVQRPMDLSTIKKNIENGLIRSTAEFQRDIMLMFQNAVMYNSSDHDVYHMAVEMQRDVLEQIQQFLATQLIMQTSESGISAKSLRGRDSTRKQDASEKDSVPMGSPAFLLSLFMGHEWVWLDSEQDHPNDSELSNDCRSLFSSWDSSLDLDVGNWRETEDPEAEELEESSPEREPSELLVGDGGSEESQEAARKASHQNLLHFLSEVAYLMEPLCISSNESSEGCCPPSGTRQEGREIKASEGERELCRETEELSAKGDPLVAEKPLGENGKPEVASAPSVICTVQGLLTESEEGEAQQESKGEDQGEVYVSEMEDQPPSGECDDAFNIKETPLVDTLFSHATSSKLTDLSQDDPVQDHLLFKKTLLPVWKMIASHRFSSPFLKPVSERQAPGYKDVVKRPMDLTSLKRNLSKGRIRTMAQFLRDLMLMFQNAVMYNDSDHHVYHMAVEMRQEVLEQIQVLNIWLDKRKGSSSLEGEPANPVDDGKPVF
T4 sequence (Q6PL18 980-1092 limits assumed): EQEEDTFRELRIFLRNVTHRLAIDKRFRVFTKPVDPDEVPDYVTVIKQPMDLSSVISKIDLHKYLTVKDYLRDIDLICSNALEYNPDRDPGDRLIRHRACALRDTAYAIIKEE
T8 sequence (P51531 1378-1506 limits assumed): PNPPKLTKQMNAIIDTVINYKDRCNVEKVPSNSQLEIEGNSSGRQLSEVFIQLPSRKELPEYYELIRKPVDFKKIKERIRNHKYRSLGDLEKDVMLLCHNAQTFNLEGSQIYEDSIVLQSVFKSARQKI
T1 sequence (P25440 whole entry): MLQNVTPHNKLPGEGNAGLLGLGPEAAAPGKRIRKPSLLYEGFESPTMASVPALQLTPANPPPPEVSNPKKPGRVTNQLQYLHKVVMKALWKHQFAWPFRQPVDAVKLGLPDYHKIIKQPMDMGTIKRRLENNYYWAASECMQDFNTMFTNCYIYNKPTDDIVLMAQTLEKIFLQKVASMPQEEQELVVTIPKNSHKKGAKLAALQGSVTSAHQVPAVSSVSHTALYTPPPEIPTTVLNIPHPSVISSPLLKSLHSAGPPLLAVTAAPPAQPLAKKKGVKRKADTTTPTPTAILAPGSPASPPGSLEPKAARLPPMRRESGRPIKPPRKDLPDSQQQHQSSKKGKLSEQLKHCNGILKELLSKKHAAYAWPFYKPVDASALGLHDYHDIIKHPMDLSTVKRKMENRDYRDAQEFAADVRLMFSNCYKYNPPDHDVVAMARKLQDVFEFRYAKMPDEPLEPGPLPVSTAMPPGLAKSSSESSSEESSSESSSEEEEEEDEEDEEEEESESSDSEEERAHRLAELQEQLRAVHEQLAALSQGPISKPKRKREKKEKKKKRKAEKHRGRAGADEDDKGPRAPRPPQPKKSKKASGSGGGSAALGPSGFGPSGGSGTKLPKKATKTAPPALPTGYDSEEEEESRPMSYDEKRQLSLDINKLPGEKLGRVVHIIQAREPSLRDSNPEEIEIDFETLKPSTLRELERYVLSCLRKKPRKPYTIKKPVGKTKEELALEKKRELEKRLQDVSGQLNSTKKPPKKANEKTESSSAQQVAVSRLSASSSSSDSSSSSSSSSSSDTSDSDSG
T7 sequence (Q92830 728-832 limits assumed): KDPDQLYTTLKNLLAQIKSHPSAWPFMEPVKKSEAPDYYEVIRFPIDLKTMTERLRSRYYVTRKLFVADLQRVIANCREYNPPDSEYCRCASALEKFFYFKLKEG
T2 sequence (Q15059 whole entry): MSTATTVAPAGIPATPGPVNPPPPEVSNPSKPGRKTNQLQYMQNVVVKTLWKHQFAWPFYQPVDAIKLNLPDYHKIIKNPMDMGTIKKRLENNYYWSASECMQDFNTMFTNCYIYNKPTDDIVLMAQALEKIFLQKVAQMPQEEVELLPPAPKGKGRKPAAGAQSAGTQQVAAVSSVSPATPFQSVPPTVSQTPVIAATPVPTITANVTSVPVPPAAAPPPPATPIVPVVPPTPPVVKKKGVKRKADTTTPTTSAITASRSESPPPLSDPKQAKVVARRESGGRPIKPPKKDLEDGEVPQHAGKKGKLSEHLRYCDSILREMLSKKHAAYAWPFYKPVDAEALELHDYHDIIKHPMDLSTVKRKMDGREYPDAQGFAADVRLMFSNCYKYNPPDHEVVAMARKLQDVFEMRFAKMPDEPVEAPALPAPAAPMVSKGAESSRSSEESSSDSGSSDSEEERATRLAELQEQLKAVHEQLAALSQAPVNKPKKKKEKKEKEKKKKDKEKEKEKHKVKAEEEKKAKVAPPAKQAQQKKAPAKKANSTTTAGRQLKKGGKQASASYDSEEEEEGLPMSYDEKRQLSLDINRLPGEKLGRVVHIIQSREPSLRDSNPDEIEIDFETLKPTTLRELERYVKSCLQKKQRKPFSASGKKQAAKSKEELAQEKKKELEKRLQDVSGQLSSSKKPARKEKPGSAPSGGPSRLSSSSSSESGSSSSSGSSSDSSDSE

On to `CCOc1cc(C(=O)N2CCCN(C)CC2)ccc1Nc1cc2c(cn1)N(C)C(=O)c1ccccc1N2C` [Compound 8], for which the EC50 stood at 0.58 µM in [1] (setting [10]); 0.5 µM in experiment [1] (setting [11]); 0.55 µM in experiment [1] (setting [12]); 0.71 µM in experiment [1] (setting [13]); 0.47 µM in experiment [1] (setting [14]); 1.29 µM in experiment [1] (setting [15]). In addition, the EC50 was determined as 1.42 µM in [1] (setting [16]); 0.98 µM in experiment [1] (setting [17]); 0.52 µM in experiment [1] (setting [18]); 0.75 µM in [1] (setting [19]); 0.32 µM in [1] (setting [20]); 1.63 µM in experiment [1] (setting [21]). Further, the EC50 in experiment [1] (setting [22]) is 4.45 µM; in experiment [1] (setting [23]), 0.63 µM; in [1] (setting [24]), 0.9 µM; in [1] (setting [25]) it was 1.14 µM.
On to `CCOc1cc(C(=O)N2CCC(N3CCCC3)CC2)ccc1Nc1cc2c(cn1)N(C)C(=O)c1ccccc1N2C` [Compound 46, 3-(2-Ethoxy-4-(4-(pyrrolidin-1-yl)piperidine-1-carbonyl)phenylamino)-5,11-dimethyl-5H-benzo[e]pyrido[3,4-b][1,4]diazepin-10(11H)-one], for which the EC50 in experiment [1] (setting [10]) is 0.26 µM; in experiment [1] (setting [11]), 0.18 µM; in experiment [1] (setting [12]), 0.28 µM; in experiment [1] (setting [13]) it was 0.32 µM; in [1] (setting [14]), 0.2 µM; in experiment [1] (setting [15]), 0.48 µM. Further, the EC50 in experiment [1] (setting [16]) is 0.6 µM; in [1] (setting [17]), 0.35 µM; in [1] (setting [18]), 0.31 µM; in experiment [1] (setting [19]) it was 0.36 µM; in experiment [1] (setting [20]) it was 0.13 µM; in [1] (setting [21]), 0.78 µM. For the same molecule, the EC50 is 2.2 µM in experiment [1] (setting [22]), 0.24 µM in experiment [1] (setting [23]), 0.45 µM in experiment [1] (setting [24]) and 0.41 µM in experiment [1] (setting [25]). Further, the Kd was 55 nM in experiment [2]; 33 nM in experiment [3]; 41 nM in [4]; more than 20000 nM in [5]; more than 20000 nM in [6]; more than 20000 nM in [7]. Also, the Kd in experiment [8] and in [9] was more than 20000 nM throughout.
As for `CCOc1cc(C(=O)N[C@H]2CC[C@H](O)CC2)ccc1Nc1cc2c(cn1)N(C)C(=O)c1ccccc1N2C` [Compound T62], the Kd in [2] is 93 nM; in [3], 110 nM; in experiment [4], 97 nM; in [5], more than 20000 nM; in experiment [6] it was more than 20000 nM; in experiment [7], more than 20000 nM. Moreover, the Kd in experiment [8] and in [9] was more than 20000 nM throughout.
